This is an account of results in patent US20010036941A1, “Use of 7-(1-aminomethyl-2-oxa-7-aza-bicyclo[3.3.0]oct-7-yl)-quinolonecarboxylic acid and -naphthyridonecarboxylic acid derivatives for the therapy of Helicobacter pylori infections and associated gastroduodenal disorders” (priority 1996, published 2001).

The term melting point denotes the temperature, or range, at which the solid turns liquid. The term MIC denotes the lowest concentration found to suppress growth.

≈ marks a conversion by molar mass, not a printed value. Counter-ions that a name gives are not always drawn.

Data set [1] relates to H. pylori clinic isolate 008. As to the kind of experiment: MIC, agar dilution test, H. pylori clinic isolate 008. To be noted: lowest concentration with no visible growth; for MIC: Helicobacter pylori. The data set is classed as cell-based. On the procedure: (§1) For inoculation, fresh Helicobacter cultures from liquid culture or suspension of the pathogens from agar plates were used. The inoculated agar plates were incubated at 37° C. in an atmosphere containing 5-10% of CO2 for 48-72 hours.

The next data set concerns H. pylori NCTC 11637. Kind of data set: MIC, agar dilution test, H. pylori NCTC 11637. The class given is cell-based. The note with it: for MIC: Helicobacter pylori, NCTC11637, lowest concentration with no visible growth. As to the method: as §1
The test system of data set [2] is H. felis strain (ATCC 49179). As to the kind of experiment: H. felis mouse model (clearance / eradication, urease test). The data set is classed as in vivo, mice. To be noted: for Clearance %: 3-day treatment of infected mice, 2 × 10 mg/kg, 6 animals per group; for Eradication of H. felis in the mouse model: animal model (H. felis, mouse), monotherapeutic treatment. On the procedure: The bacteria were administered as a suspension (0.1 ml with 10^8-10^9 bacteria) 4 times within 7 days using a pharyngeal tube. Alternatively, stomach homogenates of mice which had been infected earlier were also used for infection.
In some cases, pathogen eradication 24 weeks after the end of the treatment was also determined. In accordance with the “CLO” test used in clinical diagnostics, a microtitre-based urease test was used. Defined stomach biopsy specimens were tested for change of colour within a period of 24 hours.

The test system of another data set is H. pylori. The note with it: cited from earlier work.

Regarding `CC(C)(C)n1cc(C(=O)O)c(=O)c2cc(F)c(N3CC4CCOC4(CN)C3)cc21` (stereo not drawn) [Example 17 B, 7-(1-aminomethyl-2-oxa-7-aza-bicyclo[3.3.0]oct-7-yl)-1-tert-butyl-6-fluoro-1,4-dihydro-4-oxo-3-quinolinecarboxylic acid], the melting point was 217 to 218 °C (dec.).
With `CCOC(=O)c1cn(C2CC2)c2c(F)c(N3CC4CCOC4(CN)C3)ncc2c1=O.O=C(O)C(F)(F)F` (stereo not drawn), the melting point is 199 to 200 °C (dec.).
Take `NC(=O)NCC12CN(c3c(F)cc4c(=O)c(C(=O)O)cn(C5CC5)c4c3F)CC1CCO2` (stereo not drawn) [Example 27, 1-cyclopropyl-6,8-difluoro-1,4-dihydro-4-oxo-7-(1-ureidomethyl-2-oxa-7-aza-bicyclo[3.3.0]oct-7-yl)-3-quinolinecarboxylic acid]: the melting point was 185 to 187 °C (dec.). The minimal inhibitory concentration (MIC) in data set [1] was at most 0.015 µg/mL. Also, in the data set with H. pylori NCTC 11637, the MIC is 0.5 µg/mL (≈ 1.12 µM).
Turning to `COC(=O)c1cn(C2CC2)c2c(F)c(N3CC4CCOC4(CN)C3)c(F)cc2c1=O.Cl` (stereo not drawn), the melting point was in the range of 109 to 111 °C.
In the case of `NCC12CN(c3c(F)cc4c(=O)c(C(=O)OCc5ccccc5)cn(C5CC5)c4c3F)CC1CCO2` (stereo not drawn) [Example 14 B, Benzyl 7-(1-aminomethyl-2-oxa-7-aza-bicyclo[3.3.0]oct-7-yl)-1-cyclopropyl-6,8-difluoro-1,4-dihydro-4-oxo-3-quinolinecarboxylate], the melting point was 118 to 119 °C (dec.).
As for `NCC12CN(c3ncc4c(=O)c(C(=O)O)cn(C5CC5)c4c3F)CC1CCO2` (stereo not drawn) (as salt: hydrochloride), the melting point was 301 to 304 °C (dec.).
`CCOC(=O)COC(=O)c1cn(C2CC2)c2c(F)c(N3CC4CCOC4(CN)C3)c(F)cc2c1=O` (stereo not drawn) [Example 15 B, Ethoxycarbonylmethyl 7-(1-aminomethyl-2-oxa-7-aza-bicyclo[3.3.0]oct-7-yl)-1-cyclopropyl-6,8-difluoro-1,4-dihydro-4-oxo-3-quinolinecarboxylate]: the melting point is 144 to 146 °C (dec.).
`Cl.N#Cc1c(N2CC3CCOC3(CN)C2)c(F)cc2c(=O)c(C(=O)O)cn(C3CC3)c12` (single isomer, unassigned; (+)) [Example 5 C, (+)-7-(1-aminomethyl-2-oxa-7-aza-bicyclo[3.3.0]oct-7-yl)-8-cyano-1-cyclopropyl-6-fluoro-1,4-dihydro-4-oxo-3-quinolinecarboxylic acid hydrochloride] displayed a Clearance % in data set [2] of 100%.
In the case of `C=Cc1c(F)c(N2CC3CCOC3(CN)C2)c(F)c2c1c(=O)c(C(=O)O)cn2C1CC1.Cl` (stereo not drawn) [Ref.*^), 7-(1-aminomethyl-2-oxa-7-aza-bicyclo[3.3.0]oct-7-yl)-1-cyclopropyl-6,8-difluror-1,4-dihydro-4-oxo-5-vinyl-3-quinolinecarboxylic acid hydrochloride], the “Activity against H. pylori” value in the data set on H. pylori is “relatively low”.
With `CC(C)(CF)n1cc(C(=O)O)c(=O)c2cc(F)c(N3CC4CCOC4(CN)C3)cc21.O=C(O)C(F)(F)F` (stereo not drawn), the melting point is 197 to 198 °C (dec.).
Same read-out and setting: the figure for `Cl.NCC12CN(c3nc4c(cc3F)c(=O)c(C(=O)O)cn4-c3cnsn3)CC1CCO2` (stereo not drawn) is 207 °C (dec.).
For the compound `C=CCOC(=O)c1cn(C2CC2)c2c(F)c(N3CC4CCOC4(CN)C3)c(F)cc2c1=O` (stereo not drawn) [Example 12 B, Allyl 7-(1-aminomethyl-2-oxa-7-aza-bicyclo[3.3.0]oct-7-yl)-1-cyclopropyl-6,8-difluoro-1,4-dihydro-4-oxo-3-quinolinecarboxylate], the melting point was 133 to 135 °C (dec.).
As to `Cl.NCC12CN(c3c(F)cc4c(=O)c(C(=O)O)cn(C5CC5)c4c3F)CC1CCO2` (racemic) [Substance A, rac. 7-(1-aminomethyl-2-oxa-7-aza-bicyclo[3.3.0]oct-7-yl)-1-cyclopropyl-6,8-difluoro-1,4-dihydro-4-oxo-3-quinolinecarboxylic acid hydrochloride], the Clearance % in data set [2] is 67%. In addition, in data set [2] (14-day treatment of the mice with 3×10 mg/kg), the “Eradication of the pathogen” value is “total eradication”.
On to `NCC12CN(c3c(F)cc4c(=O)c(C(=O)OCc5ccccc5)cn(C5CC5)c4c3F)CC1CCO2.O=C(O)C(F)(F)F` (stereo not drawn), for which the melting point was 119 to 120 °C (dec.).
As for `Cc1nc(N2CC3CCOC3(CN)C2)c(Cl)c2c1c(=O)c(C(=O)O)cn2C1CC1.O=C(O)C(F)(F)F` (stereo not drawn), the melting point is 125 to 128 °C (dec.).
Regarding `NCC12CN(c3cc4c(cc3F)c(=O)c3c(=O)[nH]sc3n4C3CC3)CC1CCO2.O=C(O)C(F)(F)F` (stereo not drawn), the melting point was 215 °C (dec.).
On the same count and under the same terms, the same measure for `CN1COc2c(N3CC4CCOC4(CN)C3)c(F)cc3c(=O)c(C(=O)O)cn1c23.Cl` (stereo not drawn): 233 °C.
On to `CNn1cc(C(=O)O)c(=O)c2cc(F)c(N3CC4CCOC4(CN)C3)c(F)c21.Cl` (stereo not drawn), for which the melting point is 177 to 179 °C (dec.).
Regarding `CCn1cc(C(=O)O)c(=O)c2cc(F)c(N3CCNC(C)C3)c(F)c21` (stereo not drawn) [lomefloxacin, reference compound], in data set [2], the “Eradication of H. felis in the mouse model” value is “not capable of eradicating the germ”.
On to `O=CNCC12CN(c3c(F)cc4c(=O)c(C(=O)O)cn(C5CC5)c4c3F)CC1CCO2` (stereo not drawn) [Example 31, 1-cyclopropyl-6,8-difluoro-7-(1-formylaminomethyl-2-oxa-7-aza-bicyclo[3.3.0]oct-7-yl)-1,4-dihydro-4-oxo-3-quinolinecarboxylic acid], for which the melting point is 208 to 209 °C (dec.). For the same compound, in data set [1], the MIC was under 0.5 µg/mL. Besides, in the data set on H. pylori NCTC 11637, the MIC was found to be 0.5 µg/mL (≈ 1.15 µM).
`CCCCOC(=O)c1cn(C2CC2)c2c(F)c(N3CC4CCOC4(CN)C3)c(F)cc2c1=O` (stereo not drawn) [Example 11 B, 1-Butyl 7-(1-aminomethyl-2-oxa-7-aza-bicyclo[3.3.0]oct-7-yl)-1-cyclopropyl-6,8-difluoro-1,4-dihydro-4-oxo-3-quinolinecarboxylate]: the melting point was 117 to 119 °C (dec.).
On the same count and under the same terms, the figure for `C=CCOC(=O)c1cn(C2CC2)c2c(F)c(N3CC4CCOC4(CN)C3)c(F)cc2c1=O.O=C(O)C(F)(F)F` (stereo not drawn) is 118 to 119 °C (dec.).
On to `C#CCOC(=O)c1cn(C2CC2)c2c(F)c(N3CC4CCOC4(CN)C3)c(F)cc2c1=O` (stereo not drawn) [Example 13 B, Propargyl 7-(1-aminomethyl-2-oxa-7-aza-bicyclo[3.3.0]oct-7-yl)-1-cyclopropyl-6,8-difluoro-1,4-dihydro-4-oxo-3-quinolinecarboxylate], for which the melting point is 127 to 129 °C (dec.).
Turning to `COc1c(N2CC3CCOC3(CN)C2)c(F)cc2c(=O)c(C(=O)O)cn(C3CC3)c12.O=C(O)C(F)(F)F` (stereo not drawn), the melting point was 215 to 216 °C (dec.).
On to `NC(=O)NCC12CN(c3c(F)cc4c(=O)c(C(=O)O)cn([C@@H]5C[C@@H]5F)c4c3Cl)CC1CCO2` (stereo partly drawn) [Example 30, 8-chloro-6-fluoro-1-[(1R,2S)-2-fluoro-cyclopropyl]-1,4-dihydro-4-oxo-7-(1-ureidomethyl-2-oxa-7-aza-bicyclo[3.3.0]oct-7-yl)-3-quinolinecarboxylic acid], for which the MIC in data set [1] came out at 0.25 µg/mL (≈ 0.518 µM); with H. pylori NCTC 11637 it was 0.125 µg/mL (≈ 0.259 µM).
Turning to `C[C@H]1COc2c(N3CC4CCOC4(CN)C3)c(F)cc3c(=O)c(C(=O)O)cn1c23.Cl` (stereo partly drawn), the melting point is 191 to 193 °C (dec.).
Take `O=C(O)c1cn(C2CC2)c2c(Cl)c(N3C[C@@H]4CCCN[C@@H]4C3)c(F)cc2c1=O` [BAY Y 3118, 8-chloro-1-cyclopropyl-7-([S,S]-2,8-diazabicyclo[4.3.0]non-8-yl)-6-fluoro-1,4-dihydro-4-oxo-3-quinolinecarboxylic acid, reference compound]: the “Eradication of H. felis in the mouse model” value in data set [2] is reported as “not possible to achieve eradication”.
`CCOC(=O)c1cn(C2CC2)c2c(F)c(N3CC4CCOC4(CN)C3)c(F)cc2c1=O.O=C(O)C(F)(F)F` (stereo not drawn) registered a melting point of 139 to 141 °C.
The same measure, in the same setting: the same measure for `Cl.NCC12CN(c3cc4c(c(O)c3F)c(=O)c(C(=O)O)cn4C3CC3)CC1CCO2` (stereo not drawn): 225 °C (dec.).
As for `C=Cc1c(F)c(N2CC3CCOC3(CN)C2)c(F)c2c1c(=O)c(C(=O)O)cn2C1CC1.Cl` (stereo not drawn) [Ref.*^)], the “MIC H. pylori 008” value in data set [1] was 0.25 µg/mL. For the same compound, in the data set on H. pylori NCTC 11637 (lowest concentration with no visible growth), the “MIC H. pylori 11637” value is 0.25 µg/mL.
With `Cc1c(F)c(N2CC3CCOC3(CN)C2)cc2c1c(=O)c(C(=O)O)cn2C1CC1.Cl` (stereo not drawn), the melting point is 251 to 253 °C (dec.).
For `COc1c(N2CC3CCOC3(CN)C2)c(F)c(N)c2c(=O)c(C(=O)O)cn(C3CC3)c12` (stereo not drawn) [Example 2 C, 5-amino-7-(1-aminomethyl-2-oxa-7-aza-bicyclo[3.3.0]oct-7-yl)-1-cyclopropyl-6-fluoro-1,4-dihydro-8-methoxy-4-oxo-3-quinolinecarboxylic acid], the melting point is 209 to 211 °C (dec.).
For the compound `COc1c(N2CC3CCOC3(CN)C2)c(F)c(N)c2c(=O)c(C(=O)O)cn(C3CC3)c12.Cl` (stereo not drawn), the melting point is 242 to 244 °C (dec.).
As to `NC(=O)NCC12CN(c3c(F)cc4c(=O)c(C(=O)O)cn(C5CC5)c4c3OC(F)F)CC1CCO2` (stereo not drawn) [Example 29, 1-cyclopropyl-8-difluoromethoxy-6-fluoro-1,4-dihydro-4-oxo-7-(1-ureidomethyl-2-oxa-7-aza-bicyclo[3.3.0]oct-7-yl)-3-quinolinecarboxylic acid], the MIC (in data set [1]; in the data set with H. pylori NCTC 11637) was 8 µg/mL (≈ 16.1 µM) in each case.
